# Assay results: publication PMC10891602, “Improvement of Carotenoids’ Production by Increasing the Activity of Beta-Carotene Ketolase with Different Strategies” (Microorganisms, 2024)
# How the values were obtained:
# CrtWBsp = biological target: T1, CrtWBsp (Brevundimonas sp. NBRC 101024, UniProt Q4W8B8); experiment: HPLC of echinenone and canthaxanthin formed by crude extract; format: biochemical; settings: Fe2+, 2-oxoglutarate, ascorbate, NADPH, ATP; pH 8.0; 30 °C; 3 h
# T1 construct: gene crtW
# T1 sequence (Q4W8B8 1-244): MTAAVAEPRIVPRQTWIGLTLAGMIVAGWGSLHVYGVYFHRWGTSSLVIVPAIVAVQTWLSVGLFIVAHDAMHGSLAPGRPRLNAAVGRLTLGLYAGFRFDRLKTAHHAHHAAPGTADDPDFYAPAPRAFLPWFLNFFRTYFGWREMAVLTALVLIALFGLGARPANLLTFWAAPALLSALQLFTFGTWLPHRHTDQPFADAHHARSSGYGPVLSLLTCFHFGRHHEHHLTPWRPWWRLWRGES
# CzW1 = biological target: T2, CzW1 (Chromochloris zofingiensis, UniProt Q5U931); experiment: as above; format: biochemical; settings: Fe2+, 2-oxoglutarate, ascorbate, NADPH, ATP; pH 8.0; 30 °C; 3 h
# T2 construct: gene bkt/crto
# T2 sequence (Q5U931 1-312): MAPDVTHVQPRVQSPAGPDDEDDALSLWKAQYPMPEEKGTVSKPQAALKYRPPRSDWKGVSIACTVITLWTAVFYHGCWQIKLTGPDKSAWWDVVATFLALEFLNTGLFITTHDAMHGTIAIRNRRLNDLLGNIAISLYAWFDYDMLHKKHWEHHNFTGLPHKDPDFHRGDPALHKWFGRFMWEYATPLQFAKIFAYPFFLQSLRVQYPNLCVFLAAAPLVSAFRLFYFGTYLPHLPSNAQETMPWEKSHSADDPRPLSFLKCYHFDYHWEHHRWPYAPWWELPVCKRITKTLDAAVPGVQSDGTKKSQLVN
compound,measurement,setting,value
CC1=C(/C=C/C(C)=C/C=C/C(C)=C/C=C/C=C(C)/C=C/C=C(C)/C=C/C2=C(C)CCCC2(C)C)C(C)(C)CCC1 [β-carotene],HPLC of echinenone and canthaxanthin formed by crude extract,CrtWBsp,β-carotene ketolase from p30CrtWBsp was more efficient in the production of echinenone and canthaxanthin
same,HPLC of echinenone and canthaxanthin formed by crude extract,CzW1,canthaxanthin was only detected in enzymatic solution containing protein extracts from E. coli with pCrtWBsp and pCzW1
